Test results from patent US7820623B2 (priority 2006, dated 2010).
Bridge positions count the residues as written; N and C are the ends. Square brackets hold non-standard residues; d marks the D form. Peptide text beside a SMILES is read from it. 1Nal = N[C@@H](Cc1cccc2ccccc12)C(=O)O

Experiments:
[1] = system: thapsigargin-induced IL-2 production in human whole blood; conditions: read-out: Analogue Activity (IC50) WB/IL-2
[2] = system: thapsigargin-induced IFN-g production in human whole blood; type: cell-based; conditions: read-out: Analogue Activity (IC50) WB/IFNg

Row | Compound | IC50 [1] [nM] | IC50 [2] [nM]
1 | CC[C@H](C)[C@@H]1NC(=O)[C@H](CCCCN)NC(=O)[C@@H](NC(=O)[C@H](CCCCN)NC(=O)[C@@H](NC(=O)[C@H](CC(N)=O)NC(=O)[C@@H](NC(=O)[C@@H](NC(=O)[C@@H](NC(=O)CN)C(C)C)[C@@H](C)CC)[C@@H](C)CC)C(C)C)CSSC[C@@H]2NC(=O)[C@H](CCCCN)NC(=O)CNC(=O)[C@H](Cc3ccccc3)NC(=O)[C@H](CCCNC(=N)N)NC(=O)[C@H](CCSC)NC(=O)CNC(=O)[C@H](C)NC(=O)[C@H](CCCCN)NC(=O)[C@H](CCCCN)NC(=O)[C@@H]3CSSC[C@@H](C(=O)N[C@H](C(=O)N4CCC[C@H]4C(=O)N[C@@H](CCCCN)C(=O)O)[C@@H](C)O)NC(=O)[C@H](Cc4c[nH]cn4)NC(=O)[C@H](CSSC[C@H](NC(=O)[C@H](CCC(N)=O)NC(=O)[C@H](CCC(=O)O)NC(=O)[C@H](CO)NC1=O)C(=O)N[C@@H](CC(C)C)C(=O)N[C@@H](CCC(=O)O)C(=O)N1CCC[C@H]1C(=O)N3)NC(=O)[C@H](CCCCN)NC(=O)CNC(=O)[C@H](CC(N)=O)NC(=O)[C@H](CCSC)NC2=O [R12E] (H-GVIINVKCKISEQCLEPCKKAGMRFGKCMNGKCHCTPK-OH; disulfide 8-28, 14-33, 18-35) | 1.79 | 2
2 | CC[C@H](C)[C@@H]1NC(=O)[C@H](CCCCN)NC(=O)[C@@H](NC(=O)[C@H](CCCCN)NC(=O)[C@@H](NC(=O)[C@H](CC(N)=O)NC(=O)[C@@H](NC(=O)[C@@H](NC(=O)[C@@H](NC(=O)CN)C(C)C)[C@@H](C)CC)[C@@H](C)CC)C(C)C)CSSC[C@@H]2NC(=O)[C@H](CCCCN)NC(=O)CNC(=O)[C@H](Cc3ccccc3)NC(=O)[C@H](Cc3cccc4ccccc34)NC(=O)[C@H](CCSC)NC(=O)CNC(=O)[C@H](C)NC(=O)[C@H](CCCCN)NC(=O)[C@H](CCCCN)NC(=O)[C@@H]3CSSC[C@@H](C(=O)N[C@H](C(=O)N4CCC[C@H]4C(=O)N[C@@H](CCCCN)C(=O)O)[C@@H](C)O)NC(=O)[C@H](Cc4c[nH]cn4)NC(=O)[C@H](CSSC[C@H](NC(=O)[C@H](CCC(N)=O)NC(=O)[C@H](CCCNC(=N)N)NC(=O)[C@H](CO)NC1=O)C(=O)N[C@@H](CC(C)C)C(=O)N[C@@H](CCC(=O)O)C(=O)N1CCC[C@H]1C(=O)N3)NC(=O)[C@H](CCCCN)NC(=O)CNC(=O)[C@H](CC(N)=O)NC(=O)[C@H](CCSC)NC2=O [R24Nal] (H-GVIINVKCKISRQCLEPCKKAGM[1Nal]FGKCMNGKCHCTPK-OH; disulfide 8-28, 14-33, 18-35) | 0.293 | 0.818
3 | CC[C@H](C)[C@@H]1NC(=O)[C@H](CCCCN)NC(=O)[C@@H](NC(=O)[C@H](CCCCN)NC(=O)[C@@H](NC(=O)[C@H](CC(N)=O)NC(=O)[C@@H](NC(=O)[C@@H](NC(=O)[C@@H](NC(=O)CN)C(C)C)[C@@H](C)CC)[C@@H](C)CC)C(C)C)CSSC[C@@H]2NC(=O)[C@H](CCCCN)NC(=O)CNC(=O)[C@H](Cc3ccccc3)NC(=O)[C@H](CCCNC(=N)N)NC(=O)[C@H](CCSC)NC(=O)CNC(=O)[C@H](C)NC(=O)[C@H](CCCCN)NC(=O)[C@H](CCCCN)NC(=O)[C@@H]3CSSC[C@@H](C(=O)N[C@H](C(=O)N4CCC[C@H]4C(=O)N[C@@H](CCCCN)C(=O)O)[C@@H](C)O)NC(=O)[C@H](Cc4c[nH]cn4)NC(=O)[C@H](CSSC[C@H](NC(=O)[C@H](CCC(N)=O)NC(=O)[C@H](CCCNC(=N)N)NC(=O)[C@H](C)NC1=O)C(=O)N[C@@H](CC(C)C)C(=O)N[C@@H](CCC(=O)O)C(=O)N1CCC[C@H]1C(=O)N3)NC(=O)[C@H](CCCCN)NC(=O)CNC(=O)[C@H](CC(N)=O)NC(=O)[C@H](CCSC)NC2=O [S11A] (H-GVIINVKCKIARQCLEPCKKAGMRFGKCMNGKCHCTPK-OH; disulfide 8-28, 14-33, 18-35) | 0.09 | 0.11
4 | CC[C@H](C)[C@@H]1NC(=O)[C@H](CCCCN)NC(=O)[C@@H](NC(=O)[C@H](CCCCN)NC(=O)[C@@H](NC(=O)[C@H](CC(N)=O)NC(=O)[C@@H](NC(=O)[C@@H](NC(=O)[C@@H](NC(=O)CN)C(C)C)[C@@H](C)CC)[C@@H](C)CC)C(C)C)CSSC[C@@H]2NC(=O)[C@H](CCCCN)NC(=O)CNC(=O)[C@H](Cc3ccccc3)NC(=O)[C@H](CCCNC(=N)N)NC(=O)[C@H](CCSC)NC(=O)CNC(=O)[C@H](C)NC(=O)[C@H](CCCCN)NC(=O)[C@H](CCCCN)NC(=O)[C@@H]3CSSC[C@@H](C(=O)N[C@@H](CCCNC(=N)N)C(=O)N4CCC[C@H]4C(=O)N[C@@H](CCCCN)C(=O)O)NC(=O)[C@H](Cc4c[nH]cn4)NC(=O)[C@H](CSSC[C@H](NC(=O)[C@H](CCC(N)=O)NC(=O)[C@H](CCCNC(=N)N)NC(=O)[C@H](CO)NC1=O)C(=O)N[C@@H](CC(C)C)C(=O)N[C@@H](CCC(=O)O)C(=O)N1CCC[C@H]1C(=O)N3)NC(=O)[C@H](CCCCN)NC(=O)CNC(=O)[C@H](CC(N)=O)NC(=O)[C@H](CCSC)NC2=O [T36R] (H-GVIINVKCKISRQCLEPCKKAGMRFGKCMNGKCHCRPK-OH; disulfide 8-28, 14-33, 18-35) | 9.7 | 10.1
5 | CC[C@H](C)[C@H](NC(=O)[C@H](C)NC(=O)CN)C(=O)N[C@H](C(=O)N[C@@H](CC(N)=O)C(=O)N[C@H](C(=O)N[C@@H](CCCCN)C(=O)N[C@H]1CSSC[C@@H]2NC(=O)[C@H](CCCCN)NC(=O)CNC(=O)[C@H](Cc3ccccc3)NC(=O)[C@H](CCCNC(=N)N)NC(=O)[C@H](CCSC)NC(=O)CNC(=O)[C@H](C)NC(=O)[C@H](CCCCN)NC(=O)[C@H](CCCCN)NC(=O)[C@@H]3CSSC[C@@H](C(=O)N[C@H](C(=O)N4CCC[C@H]4C(=O)N[C@@H](CCCCN)C(=O)O)[C@@H](C)O)NC(=O)[C@H](Cc4c[nH]cn4)NC(=O)[C@H](CSSC[C@H](NC(=O)[C@H](CCC(N)=O)NC(=O)[C@H](CCCNC(=N)N)NC(=O)[C@H](CO)NC(=O)[C@H]([C@@H](C)CC)NC(=O)[C@H](CCCCN)NC1=O)C(=O)N[C@@H](CC(C)C)C(=O)N[C@@H](CCC(=O)O)C(=O)N1CCC[C@H]1C(=O)N3)NC(=O)[C@H](CCCCN)NC(=O)CNC(=O)[C@H](CC(N)=O)NC(=O)[C@H](CCSC)NC2=O)C(C)C)[C@@H](C)CC [V2A] (H-GAIINVKCKISRQCLEPCKKAGMRFGKCMNGKCHCTPK-OH; disulfide 8-28, 14-33, 18-35) | 0.0884 | 0.104
6 | CC[C@H](C)[C@@H]1NC(=O)[C@H](CCCCN)NC(=O)[C@@H](NC(=O)[C@H](CCCCN)NC(=O)[C@@H](NC(=O)[C@H](CC(N)=O)NC(=O)[C@@H](NC(=O)[C@@H](NC(=O)[C@H](CCC(=O)O)NC(=O)CN)[C@@H](C)CC)[C@@H](C)CC)C(C)C)CSSC[C@@H]2NC(=O)[C@H](CCCCN)NC(=O)CNC(=O)[C@H](Cc3ccccc3)NC(=O)[C@H](CCCNC(=N)N)NC(=O)[C@H](CCSC)NC(=O)CNC(=O)[C@H](C)NC(=O)[C@H](CCCCN)NC(=O)[C@H](CCCCN)NC(=O)[C@@H]3CSSC[C@@H](C(=O)N[C@H](C(=O)N4CCC[C@H]4C(=O)N[C@@H](CCCCN)C(=O)O)[C@@H](C)O)NC(=O)[C@H](Cc4c[nH]cn4)NC(=O)[C@H](CSSC[C@H](NC(=O)[C@H](CCC(N)=O)NC(=O)[C@H](CCCNC(=N)N)NC(=O)[C@H](CO)NC1=O)C(=O)N[C@@H](CC(C)C)C(=O)N[C@@H](CCC(=O)O)C(=O)N1CCC[C@H]1C(=O)N3)NC(=O)[C@H](CCCCN)NC(=O)CNC(=O)[C@H](CC(N)=O)NC(=O)[C@H](CCSC)NC2=O [V2E] (H-GEIINVKCKISRQCLEPCKKAGMRFGKCMNGKCHCTPK-OH; disulfide 8-28, 14-33, 18-35) | 0.097 | 0.184
